Here are results for 14 molecules from US9850283B2, “Macrocyclic inhibitors of the PD-1/PD-L1 and CD80(B7-1)/PD-L1 protein/protein interactions” (BRISTOL-MYERS SQUIBB COMPANY, priority 2013, dated 2017).

For one assay, the target named is T1, Human PD-L1/PD-1 (Homo sapiens, UniProt Q9NZQ7).
T1 construct: made in house; host or cells: HEK293T
In words: HTRF PD-1-Ig/PD-L1-His binding assay (human PD-L1). As to conditions: cluster symbol; read-out: HTRF IC50 cluster. In outline:
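Readout: time-resolved FRET between Eu cryptate-labeled anti-Ig (1 nM final) and APC-labeled anti-His (20 nM final) antibodies. These detect interaction of Fc-fused PD-1 with His-tagged human PD-L1 in dPBS containing 0.1% BSA and 0.05% Tween-20.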
Background: Time-resolved FRET reads energy transfer from a long-lived donor to a nearby acceptor.

The target in assay [1] is T2, LK35.2-hPD-L1 cells / PE-labeled PD-1-Ig (Homo sapiens, UniProt Q9NZQ7).
T2 construct: expressed in transfected cells; host or cells: LK35.2 mouse B cell line
T2 sequence (Q9NZQ7 19-290): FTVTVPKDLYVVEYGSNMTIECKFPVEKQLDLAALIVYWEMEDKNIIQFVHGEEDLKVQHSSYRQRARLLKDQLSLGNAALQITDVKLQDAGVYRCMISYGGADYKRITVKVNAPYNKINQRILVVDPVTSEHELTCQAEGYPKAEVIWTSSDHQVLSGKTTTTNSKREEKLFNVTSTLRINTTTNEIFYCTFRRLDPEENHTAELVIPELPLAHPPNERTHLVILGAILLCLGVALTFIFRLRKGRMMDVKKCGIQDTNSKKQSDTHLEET
The assay can be described thus: LK35.2-hPD-L1 cell binding high-content screening assay. Format: cell-based. The settings on record: cell binding assay, cell line not given; cluster symbol; read-out: CBA IC50 cluster. In short, it runs like this: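 Fluorescent PD-1-Ig binding to PD-L1-expressing LK35.2 cells, imaged after washing. Conditions: 1 nM PE-PD-1-Ig, 37 °C, 1 h, RPMI with 10% fetal calf serum.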

Positions of bridges follow the written chain, without caps; N, C: chain ends. Non-standard residues stand in square brackets, D forms with d. Residues, ends and D or L forms follow the SMILES beside them. ξ: configuration not given here. Bta = N[C@@H](Cc1csc2ccccc12)C(=O)O; Hyp = O=C(O)[C@@H]1C[C@@H](O)CN1; NMeNle = CCCC[C@H](NC)C(=O)O; NMeM = CN[C@@H](CCSC)C(=O)O; NMeA = CN[C@@H](C)C(=O)O; ξC = NC(CS)C(=O)O; Sar = CNCC(=O)O Where only a bound is given, the exact number is not on record here.

T1 sequence (Q9NZQ7 with tags, fused parts or gaps): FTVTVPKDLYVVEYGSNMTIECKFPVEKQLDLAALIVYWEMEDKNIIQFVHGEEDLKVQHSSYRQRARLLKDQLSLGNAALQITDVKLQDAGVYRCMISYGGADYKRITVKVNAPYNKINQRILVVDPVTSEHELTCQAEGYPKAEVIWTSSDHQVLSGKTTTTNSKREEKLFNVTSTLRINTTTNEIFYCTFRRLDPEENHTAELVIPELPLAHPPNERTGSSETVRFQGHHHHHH

As usually defined, the IC50 is the concentration that inhibits the measured activity by half. For `CCCC[C@H]1C(=O)N[C@@H](CCCNC(=N)N)C(=O)NC(C(=O)NCC(N)=O)CSCC(=O)N[C@@H](Cc2ccc(O)cc2)C(=O)N(C)[C@@H](C)C(=O)N[C@@H](CC(N)=O)C(=O)N2CCC[C@H]2C(=O)N[C@@H](CO)C(=O)N[C@@H](CC(C)C)C(=O)N2C[C@H](O)C[C@H]2C(=O)N[C@@H](Cc2c[nH]c3ccccc23)C(=O)N[C@@H](CO)C(=O)N[C@@H](Cc2c[nH]c3ccccc23)C(=O)N(C)[C@@H](CCSC)C(=O)N1C` (stereo partly shown) [Example 9100] ({CH2CO}-Y[NMeA]NPSL[Hyp]WSW[NMeM][NMeNle]R[ξC]G-NH2; thioether N-14), the IC50 was 0.385 to 6.74 nM at Human PD-L1/PD-1 and 0.158 to 4.71 nM in assay [1].

As to `CCCC[C@H]1C(=O)N(C)[C@@H](CCSC)C(=O)N[C@@H](CCCNC(=N)N)C(=O)NC(C(=O)NCC(N)=O)CSCC(=O)N[C@@H](Cc2ccc(O)cc2)C(=O)N(C)[C@@H](C)C(=O)N[C@@H](CC(N)=O)C(=O)N2CCC[C@H]2C(=O)N[C@@H](Cc2cnc[nH]2)C(=O)N[C@@H](CO)C(=O)N2CCC[C@H]2C(=O)N[C@@H](Cc2c[nH]c3ccccc23)C(=O)N[C@@H](CO)C(=O)N[C@@H](Cc2c[nH]c3ccccc23)C(=O)N1C` (stereo partly shown) [Example 9105] ({CH2CO}-Y[NMeA]NPHSPWSW[NMeNle][NMeM]R[ξC]G-NH2; thioether N-14), the results for the half-maximal inhibitory concentration (IC50) (on Human PD-L1/PD-1; in assay [1]) were 0.385 to 6.74 nM and 4.78 to 72.9 nM, respectively.

Consider `CCCC[C@H]1C(=O)N(C)[C@@H](CCSC)C(=O)N[C@@H](CCCNC(=N)N)C(=O)NC(C(=O)NCC(N)=O)CSCC(=O)N[C@@H](Cc2ccc(O)cc2)C(=O)N(C)[C@@H](C)C(=O)N[C@@H](CC(N)=O)C(=O)N2CCC[C@H]2C(=O)N[C@@H](Cc2cnc[nH]2)C(=O)N[C@@H](CO)C(=O)N2CCC[C@H]2C(=O)N[C@@H](Cc2c[nH]c3ccccc23)C(=O)N[C@@H](CO)C(=O)N[C@@H](Cc2csc3ccccc23)C(=O)N1C` (stereo partly shown) [Example 9106] ({CH2CO}-Y[NMeA]NPHSPWS[Bta][NMeNle][NMeM]R[ξC]G-NH2; thioether N-14), for which the results for the IC50 (at Human PD-L1/PD-1; in assay [1]) were 0.385 to 6.74 nM and 4.78 to 72.9 nM, respectively.

Turning to `CCCC[C@H]1C(=O)N(C)[C@@H](CCSC)C(=O)N[C@@H](CCCNC(=N)N)C(=O)NC(C(=O)NCC(N)=O)CSCC(=O)N[C@@H](Cc2ccc(O)cc2)C(=O)N(C)[C@@H](C)C(=O)N[C@@H](CC(N)=O)C(=O)N2CCC[C@H]2C(=O)N[C@@H](Cc2cnc[nH]2)C(=O)N[C@@H](CO)C(=O)N2C[C@H](O)C[C@H]2C(=O)N[C@@H](Cc2c[nH]c3ccccc23)C(=O)N[C@@H](CO)C(=O)N[C@@H](Cc2c[nH]c3ccccc23)C(=O)N1C` (stereo partly shown) [Example 9107] ({CH2CO}-Y[NMeA]NPHS[Hyp]WSW[NMeNle][NMeM]R[ξC]G-NH2; thioether N-14), the IC50 at Human PD-L1/PD-1 lay in the range of 6.76 to 30.3 nM; in assay [1] it was 4.78 to 72.9 nM.

On to `CCCC[C@H]1C(=O)N(C)[C@@H](CCSC)C(=O)N[C@@H](CCCNC(=N)N)C(=O)NC(C(=O)NCC(N)=O)CSCC(=O)N[C@@H](Cc2ccc(O)cc2)C(=O)N(C)[C@@H](C)C(=O)N[C@@H](CC(N)=O)C(=O)N2CCC[C@H]2C(=O)N[C@@H](Cc2cnc[nH]2)C(=O)N[C@@H](CO)C(=O)N2C[C@H](O)C[C@H]2C(=O)N[C@@H](Cc2c[nH]c3ccccc23)C(=O)N[C@@H](CO)C(=O)N[C@@H](Cc2csc3ccccc23)C(=O)N1C` (stereo partly shown) [Example 9108] ({CH2CO}-Y[NMeA]NPHS[Hyp]WS[Bta][NMeNle][NMeM]R[ξC]G-NH2; thioether N-14), for which the IC50 was in the range of 0.385 to 6.74 nM on Human PD-L1/PD-1 and 0.158 to 4.71 nM in assay [1].

With `CCCC[C@H]1C(=O)N[C@@H](CCCNC(=N)N)C(=O)NC(C(=O)NCC(N)=O)CSCC(=O)N[C@@H](Cc2ccc(O)cc2)C(=O)N(C)[C@@H](C)C(=O)N[C@@H](CC(N)=O)C(=O)N2CCC[C@H]2C(=O)N[C@@H](Cc2cnc[nH]2)C(=O)N[C@@H](CO)C(=O)N2CCC[C@H]2C(=O)N[C@@H](Cc2c[nH]c3ccccc23)C(=O)N[C@@H](CO)C(=O)N[C@@H](Cc2c[nH]c3ccccc23)C(=O)N(C)[C@@H](CCSC)C(=O)N1C` (stereo partly shown) [Example 9109] ({CH2CO}-Y[NMeA]NPHSPWSW[NMeM][NMeNle]R[ξC]G-NH2; thioether N-14), the IC50 at Human PD-L1/PD-1 lay within 6.76 to 30.3 nM; in assay [1], 4.78 to 72.9 nM.

For `CCCC[C@H]1C(=O)N(C)[C@@H](C)C(=O)N[C@@H](CCCNC(=N)N)C(=O)NC(C(=O)NCC(N)=O)CSCC(=O)N[C@@H](Cc2ccc(O)cc2)C(=O)N(C)[C@@H](C)C(=O)N[C@@H](CC(N)=O)C(=O)N2CCC[C@H]2C(=O)N[C@@H](CO)C(=O)N[C@@H](CC(C)C)C(=O)N2CCC[C@H]2C(=O)N[C@@H](Cc2c[nH]c3ccccc23)C(=O)N[C@@H](CO)C(=O)N[C@@H](Cc2c[nH]c3ccccc23)C(=O)N1C` (stereo partly shown) [Example 9110] ({CH2CO}-Y[NMeA]NPSLPWSW[NMeNle][NMeA]R[ξC]G-NH2; thioether N-14), the IC50 on Human PD-L1/PD-1 lay in the range of 0.385 to 6.74 nM; in assay [1], 4.78 to 72.9 nM.

As for `CCCC[C@H]1C(=O)N(C)[C@@H](C)C(=O)N[C@@H](CCCNC(=N)N)C(=O)NC(C(=O)NCC(N)=O)CSCC(=O)N[C@@H](Cc2ccc(O)cc2)C(=O)N(C)[C@@H](C)C(=O)N[C@@H](CC(N)=O)C(=O)N2CCC[C@H]2C(=O)N[C@@H](CO)C(=O)N[C@@H](CC(C)C)C(=O)N2CCC[C@H]2C(=O)N[C@@H](Cc2c[nH]c3ccccc23)C(=O)N[C@@H](CO)C(=O)N[C@@H](Cc2csc3ccccc23)C(=O)N1C` (stereo partly shown) [Example 9111] ({CH2CO}-Y[NMeA]NPSLPWS[Bta][NMeNle][NMeA]R[ξC]G-NH2; thioether N-14), the IC50 lay within 0.385 to 6.74 nM on Human PD-L1/PD-1 and 4.78 to 72.9 nM in assay [1].

As for `CCCC[C@H]1C(=O)N[C@@H](CCCNC(=N)N)C(=O)NC(C(=O)NCC(N)=O)CSCC(=O)N[C@@H](Cc2ccc(O)cc2)C(=O)N(C)[C@@H](C)C(=O)N[C@@H](CC(N)=O)C(=O)N2CCC[C@H]2C(=O)N[C@@H](Cc2cnc[nH]2)C(=O)N[C@@H](CO)C(=O)N2CCC[C@H]2C(=O)N[C@@H](Cc2c[nH]c3ccccc23)C(=O)N[C@@H](CO)C(=O)N[C@@H](Cc2csc3ccccc23)C(=O)N(C)[C@@H](CCSC)C(=O)N1C` (stereo partly shown) [Example 9112] ({CH2CO}-Y[NMeA]NPHSPWS[Bta][NMeM][NMeNle]R[ξC]G-NH2; thioether N-14), the figures for the IC50 (on Human PD-L1/PD-1; in assay [1]) were 0.385 to 6.74 nM and 4.78 to 72.9 nM, respectively.

Take `CCCC[C@H]1C(=O)N[C@@H](CCCNC(=N)N)C(=O)NC(C(=O)NCC(N)=O)CSCC(=O)N[C@@H](Cc2ccc(O)cc2)C(=O)N(C)[C@@H](C)C(=O)N[C@@H](CC(N)=O)C(=O)N2CCC[C@H]2C(=O)N[C@@H](Cc2cnc[nH]2)C(=O)N[C@@H](CO)C(=O)N2C[C@H](O)C[C@H]2C(=O)N[C@@H](Cc2c[nH]c3ccccc23)C(=O)N[C@@H](CO)C(=O)N[C@@H](Cc2c[nH]c3ccccc23)C(=O)N(C)[C@@H](CCSC)C(=O)N1C` (stereo partly shown) [Example 9113] ({CH2CO}-Y[NMeA]NPHS[Hyp]WSW[NMeM][NMeNle]R[ξC]G-NH2; thioether N-14): the IC50 on Human PD-L1/PD-1 is 6.76 to 30.3 nM; in assay [1], 4.78 to 72.9 nM.

With `CCCC[C@H]1C(=O)N[C@@H](CCCNC(=N)N)C(=O)NC(C(=O)NCC(N)=O)CSCC(=O)N[C@@H](Cc2ccc(O)cc2)C(=O)N(C)[C@@H](C)C(=O)N[C@@H](CC(N)=O)C(=O)N2CCC[C@H]2C(=O)N[C@@H](Cc2cnc[nH]2)C(=O)N[C@@H](CO)C(=O)N2C[C@H](O)C[C@H]2C(=O)N[C@@H](Cc2c[nH]c3ccccc23)C(=O)N[C@@H](CO)C(=O)N[C@@H](Cc2csc3ccccc23)C(=O)N(C)[C@@H](CCSC)C(=O)N1C` (stereo partly shown) [Example 9114] ({CH2CO}-Y[NMeA]NPHS[Hyp]WS[Bta][NMeM][NMeNle]R[ξC]G-NH2; thioether N-14), the IC50 at Human PD-L1/PD-1 is 6.76 to 30.3 nM; in assay [1], 4.78 to 72.9 nM.

For `CCCC[C@H]1C(=O)N(C)[C@@H](CCCC)C(=O)N[C@@H](CO)C(=O)N[C@H](C(=O)NCC(N)=O)CSCC(=O)N[C@@H](Cc2ccccc2)C(=O)N(C)[C@@H](C)C(=O)N[C@@H](CC(N)=O)C(=O)N2CCC[C@H]2C(=O)N[C@@H](Cc2cnc[nH]2)C(=O)N[C@@H](CC(C)C)C(=O)N(C)CC(=O)N[C@@H](Cc2c[nH]c3ccccc23)C(=O)N[C@@H](CO)C(=O)N[C@@H](Cc2c[nH]c3ccccc23)C(=O)N1C` [Example 10001] ({CH2CO}-F[NMeA]NPHL[Sar]WSW[NMeNle][NMeNle]SCG-NH2; thioether N-14), the IC50 at Human PD-L1/PD-1 is 6.76 to 30.3 nM; in assay [1], more than 74.3 nM.

Consider `CCCC[C@H]1C(=O)N(C)[C@@H](CCCC)C(=O)N[C@@H](CCCNC(=N)N)C(=O)NC(C(=O)NCC(N)=O)CSCC(=O)N[C@@H](Cc2ccc(O)cc2)C(=O)N(C)[C@@H](C)C(=O)N[C@@H](CC(N)=O)C(=O)N2CCC[C@H]2C(=O)N[C@@H](Cc2c[nH]cn2)C(=O)NCC(=O)N[C@@H](CC(C)C)C(=O)N2CCC[C@H]2C(=O)N[C@@H](Cc2c[nH]c3ccccc23)C(=O)N[C@@H](CO)C(=O)N[C@@H](Cc2c[nH]c3ccccc23)C(=O)N1C` (stereo partly shown) [Example 10516] ({CH2CO}-Y[NMeA]NPHGLPWSW[NMeNle][NMeNle]R[ξC]G-NH2; thioether N-15), for which the half-maximal inhibitory concentration (IC50) at Human PD-L1/PD-1 is more than 30.5 nM; in assay [1] it was more than 74.3 nM.

As to `CCCC[C@H]1C(=O)N(C)[C@@H](CCCC)C(=O)N[C@@H](CCCNC(=N)N)C(=O)NC(C(=O)NCC(N)=O)CSCC(=O)N[C@@H](Cc2ccc(O)cc2)C(=O)N(C)[C@@H](C)C(=O)N[C@@H](CC(N)=O)C(=O)N2CCC[C@H]2C(=O)N[C@@H](Cc2c[nH]cn2)C(=O)N[C@@H](C)C(=O)N[C@@H](CC(C)C)C(=O)N2CCC[C@H]2C(=O)N[C@@H](Cc2c[nH]c3ccccc23)C(=O)N[C@@H](CO)C(=O)N[C@@H](Cc2c[nH]c3ccccc23)C(=O)N1C` (stereo partly shown) [Example 10517] ({CH2CO}-Y[NMeA]NPHALPWSW[NMeNle][NMeNle]R[ξC]G-NH2; thioether N-15), the IC50 at Human PD-L1/PD-1 was more than 30.5 nM; in assay [1] it was more than 74.3 nM.
